{"source": "patent US20240360178A1", "about": "“MACROCYCLIC IMMUNOMODULATORS” (Bristol-Myers Squibb Company, priority 2021, published 2024)", "note": "Positions of bridges follow the written chain, without caps; N, C: chain ends. Non-standard residues stand in square brackets, D forms with d. Residues, ends and D or L forms follow the SMILES beside them. ξ: configuration not given here. *: point of attachment. Phe(4-COOH) = N[C@@H](Cc1ccc(C(=O)O)cc1)C(=O)O; Bip = N[C@@H](Cc1ccc(-c2ccccc2)cc1)C(=O)O; Phe(3-F) = N[C@@H](Cc1cccc(F)c1)C(=O)O; Phe(3-Me) = Cc1cccc(C[C@H](N)C(=O)O)c1; Val(3-OH) = CC(C)(O)[C@H](N)C(=O)O; NMeF = CN[C@@H](Cc1ccccc1)C(=O)O; 4Pal = N[C@@H](Cc1ccncc1)C(=O)O; Cha = N[C@@H](CC1CCCCC1)C(=O)O; dPip = O=C(O)[C@H]1CCCCN1; Carboxymethyl = O=C(O)C*; NMeA = CN[C@@H](C)C(=O)O; Orn = NCCC[C@H](N)C(=O)O; Dab = NCC[C@H](N)C(=O)O; ξV = CC(C)C(N)C(=O)O; Sar = CNCC(=O)O", "data": [{"target": "T1, human PD-1 (Jurkat-PD-1 cells) / PE-labeled human PD-L1-Ig (Homo sapiens, UniProt Q15116)", "T1 construct": "expressed in transfected cells; host or cells: Jurkat cell line over-expressing human PD-1", "T1 sequence (Q15116 25-288)": "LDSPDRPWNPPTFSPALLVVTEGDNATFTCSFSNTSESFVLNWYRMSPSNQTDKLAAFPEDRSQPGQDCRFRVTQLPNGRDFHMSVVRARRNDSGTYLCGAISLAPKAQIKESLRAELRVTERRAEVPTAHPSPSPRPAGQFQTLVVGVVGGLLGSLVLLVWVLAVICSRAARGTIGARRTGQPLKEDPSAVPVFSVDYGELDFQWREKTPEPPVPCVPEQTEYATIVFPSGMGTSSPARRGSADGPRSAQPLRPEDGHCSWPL", "assay": "Jurkat-PD-1 Cell Binding High-Content Screening Assay (CBA); Jurkat hPD1-PDL1 assay", "conditions": "Jurkat cell line over-expressing human PD-1; PE-labeled PD-L1-Ig 20 nM final; compound incubated 2 hours at 37° C.; read-out: Jurkat HPD1-PDL1 IC50", "outline": "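Jurkat-hPD-1 cells; cpd 2 h, 37° C; then PE-PD-L1-Ig 20 nM final in DMEM/10% FCS; high-content imaging read-out.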", "units": {"IC50": "µM"}, "values": [{"smiles": "CC(C)C1NC(=O)[C@H](Cc2c[nH]c3ccccc23)NC(=O)[C@H](CC(=O)O)NC(=O)[C@H](Cc2ccncc2)NC(=O)[C@H](Cc2ccc(OCC(=O)O)cc2)NC(=O)CSC[C@@H](C(=O)N[C@@H](C)C(N)=O)NC(=O)[C@H]([C@@H](C)O)NC(=O)[C@H](C(C)C)NC(=O)[C@H](CC2CCCCC2)NC(=O)[C@H](CCN)NC(=O)[C@H](Cc2ccccc2)N(C)C(=O)[C@H](CCCN)NC(=O)[C@H](CCC(=O)O)NC(=O)[C@H](Cc2ccc(-c3ccccc3)cc2)NC1=O", "note": "(stereo partly drawn) [Example 1440] ({CH2CO}-Y(Carboxymethyl)[4Pal]DW[ξV][Bip]E[Orn][NMeF][Dab][Cha]VTCA-NH2; thioether N-14)", "IC50": 0.07}, {"smiles": "CC(C)C[C@@H]1NC(=O)[C@H](Cc2c[nH]c3ccccc23)NC(=O)[C@H](CC(=O)O)NC(=O)[C@H](Cc2cccc(F)c2)NC(=O)[C@H](Cc2ccccc2)NC(=O)CSC[C@@H](C(=O)N[C@@H](C)C(N)=O)NC(=O)[C@H](CO)NC(=O)[C@H](C(C)C)NC(=O)[C@H](CC(C)C)NC(=O)[C@H](CC(N)=O)NC(=O)[C@H]2CCCN2C(=O)[C@H](C)N(C)C(=O)[C@H](C(C)C)NC(=O)[C@H](Cc2ccc(-c3ccccc3)cc2)NC1=O", "note": "[Example 1047] ({CH2CO}-F[Phe(3-F)]DWL[Bip]V[NMeA][dP]NLVSCA-NH2; thioether N-14)", "IC50": 0.09}, {"smiles": "CC(C)C[C@@H]1NC(=O)[C@H](Cc2c[nH]c3ccccc23)NC(=O)[C@H](CC(=O)O)NC(=O)[C@H](Cc2ccc(C(=O)O)cc2)NC(=O)[C@H](CC(N)=O)NC(=O)CSC[C@@H](C(=O)N[C@@H](C)C(N)=O)NC(=O)[C@H](CO)NC(=O)[C@H](C(C)C)NC(=O)[C@H](CC(C)C)NC(=O)[C@H](CC(N)=O)NC(=O)[C@H]2CCCN2C(=O)[C@H](C)N(C)C(=O)[C@H](C(C)C)NC(=O)[C@H](Cc2ccc(-c3ccccc3)cc2)NC1=O", "note": "[Example 1059] ({CH2CO}-N[Phe(4-COOH)]DWL[Bip]V[NMeA][dP]NLVSCA-NH2; thioether N-14)", "IC50": 0.14}, {"smiles": "Cc1cccc(C[C@@H]2NC(=O)[C@H](CC(=O)O)NC(=O)[C@H](Cc3ccc(OCC(=O)O)cc3)NC(=O)[C@H](CCCNC(=N)N)NC(=O)CSC[C@@H](C(=O)N[C@@H](CCN)C(N)=O)NC(=O)[C@H](CO)NC(=O)[C@H](C(C)(C)O)NC(=O)[C@H](CC3CCCCC3)NC(=O)[C@H](CCN)NC(=O)[C@H]3CCCCN3C(=O)[C@H]3CCCN3C(=O)[C@H](Cc3ccc(OCC(=O)O)cc3)NC(=O)[C@H](Cc3ccc(-c4ccccc4)cc3)NC(=O)[C@H](Cc3ccc(OCC(=O)O)cc3)NC2=O)c1", "note": "[Example 1190] ({CH2CO}-RY(Carboxymethyl)D[Phe(3-Me)]Y(Carboxymethyl)[Bip]Y(Carboxymethyl)[dP][dPip][Dab][Cha][Val(3-OH)]SC[Dab]-NH2; thioether N-14)", "IC50": 0.55}, {"smiles": "CC(C)C[C@@H]1NC(=O)[C@H](CC(N)=O)NC(=O)[C@H](Cc2ccccc2)N(C)C(=O)[C@H](C)N(C)C(=O)[C@H](C(C)C)NC(=O)[C@H](Cc2ccc(-c3ccccc3)cc2)NC(=O)[C@H](C(C)C)NC(=O)[C@H](Cc2c[nH]c3ccccc23)NC(=O)[C@H](CC(=O)O)NC(=O)[C@H](Cc2ccc(O)cc2)NC(=O)[C@H](Cc2ccccc2)NC(=O)CSC[C@@H](C(=O)N[C@@H](C)C(N)=O)NC(=O)[C@H](CO)NC(=O)[C@H](C(C)C)NC1=O", "note": "[Example 1112] ({CH2CO}-FYDWV[Bip]V[NMeA][NMeF]NLVSCA-NH2; thioether N-14)", "IC50": 0.37}, {"smiles": "CC(C)C[C@@H]1NC(=O)[C@H](Cc2c[nH]c3ccccc23)NC(=O)[C@H](CC(=O)O)NC(=O)[C@H](Cc2ccc(O)cc2)NC(=O)[C@H](Cc2ccccc2)NC(=O)CSC[C@@H](C(=O)NCC(N)=O)NC(=O)[C@H](CO)NC(=O)[C@H](C(C)C)NC(=O)[C@H](CC(C)C)NC(=O)[C@H](CO)NC(=O)CN(C)C(=O)[C@H](C)N(C)C(=O)[C@H](C(C)C)NC(=O)[C@H](Cc2ccc(-c3ccccc3)cc2)NC1=O", "note": "[Example 1225] ({CH2CO}-FYDWL[Bip]V[NMeA][Sar]SLVSCG-NH2; thioether N-14)", "IC50": 0.96}]}]}
